Measurements reported in ChEMBL document CHEMBL3217455, “Peptides: minimal drug surrogates to interrogate and interfere with protein function” (Medchemcomm, 2013).
Where a SMILES comes first, the peptide text is derived from it.

Molecular target: T1, Rhombotin-2 (Homo sapiens, UniProt P25791)
T1 sequence (P25791 whole entry): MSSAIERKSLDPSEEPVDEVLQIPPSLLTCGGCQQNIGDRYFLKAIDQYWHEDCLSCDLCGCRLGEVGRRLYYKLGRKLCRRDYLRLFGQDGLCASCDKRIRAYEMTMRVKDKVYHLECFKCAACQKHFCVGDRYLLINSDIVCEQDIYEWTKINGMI
Assay: Binding affinity to GST-tagged LMO2 (unknown origin) by surface plasmon resonance analysis

Kd: 0.029 µM
Structure (SMILES): CC[C@H](C)[C@H](NC(=O)[C@@H](NC(=O)[C@H](Cc1cnc[nH]1)NC(=O)[C@H](CC(C)C)NC(=O)[C@H](CCCNC(=N)N)NC(=O)[C@H](CO)NC(=O)[C@H](CCC(N)=O)NC(=O)[C@@H](N)CO)[C@@H](C)O)C(=O)N[C@@H](CC(C)C)C(=O)N[C@@H](CS)C(=O)N[C@@H](Cc1cnc[nH]1)C(=O)N[C@@H](CCC(=O)O)C(=O)N[C@@H](CS)C(=O)N[C@H](C(=O)N[C@H](C(=O)N[C@@H](CO)C(=O)N[C@@H](Cc1ccccc1)C(=O)N[C@@H](CC(C)C)C(=O)N[C@@H](CO)C(=O)N[C@@H](CC(C)C)C(=O)O)[C@@H](C)O)C(C)C (H-SQSRLHTILCHECVTSFLSL-OH)
